One assay concerns EV-D68. In words: EV-D68 VP1 western assay in HEp-2 cells. Format: cell-based. The settings on record: 48 h; for EV-D68 proliferation / major structural protein VP1: HEp-2 cells, western. Here is the method:
HEp-2 cells were grown to 80-90% confluency in Dulbecco's Modified Eagle's medium (DMEM) supplemented with 10% fetal calf serum (FCS) and 1% penicillin-streptomycin (PS) and fungicide. The virus and the indicated concentration of compounds were added and incubated for 48 h. After washing with PBS, the cell lysates were collected and were run in a Biorad XT-Criterion gel and transferred to a PVDF membrane. The membrane was blotted with an antibody directed against the EVD68 major structural protein VP1 purchased from Genetex (Irvine, Calif.). An anti-mouse IgG-HRP secondary antibody and Biorad's Western ECL substrate-Clarity was used to label the bands and the image was obtained in a Biorad Gel doc system. […] The tubulin antibody was used as the loading control.
HEp-2 cells were grown to 80-90% confluency in Dulbecco's Modified Eagle's medium (DMEM) supplemented with 10% fetal calf serum (PCS) and 1% penicillin-streptomycin (PS) and 1% fungicide. The EV-D68 virus and the indicated concentration of compounds were added and incubated for 48 h. After washing with PBS, the cell lysates were collected and were run in a Biorad Stain free TGX gel and were transferred to a PVDF membrane. The membrane was blotted with an antibody directed against the EV-D68 major structural protein VP1 purchased from Genetex (Irvine, Calif.). An antimouse IgG-HRP secondary antibody and Biorad's Western ECL substrate-Clarity was used to label the bands and the image was obtained in a Biorad Gel doc system. […] The non-specific band high above the VP1 band indicate that all virus treated lanes were loaded with equal amount of lysates. The identity of the EV-D68 VP1 protein is confirmed by the lack of the 33 kD band in the no virus lane.
HEp-2 cells were grown to 80-90% confluency in Dulbecco's Modified Eagle's medium (DMEM) supplemented with 10% fetal calf serum FCS and 1% penicillin-streptomycin (PS) and fungicide. The representative virus (EV-D68) and the indicated concentration of compounds were added and incubated for 48 h. […]

The test system of another assay is HSV-1 ICP0. In words: Real-time RT-PCR of HSV-1 ICP0 transcript in HEp-2 cells. In kind it is cell-based. To be noted: 12 and 24 hpi, versus DMSO. From the text: The total transcript levels were quantified using actin expression as an internal control. The cDNA obtained immediately after the virus and drug transfection(s) was set as a baseline value. The normalized expression values were transformed to the log 10 value. The data plot represents mean t standard error calculated from three replicates.
Following instructions of the manufacturers, total RNA was isolated using Tri Reagent® (Ambion, Inc., Austin, Tex.). To quantitatively examine the mRNA level of HSV-1 ICP0 from the infected cells, real-time RT-PCR was undertaken using the QuantiTect SYBR Green RT-PCR kit (QIAGEN, Valencia, Calif.). […] Fluorescence (captured at 80° C.) was determined to be absent from the signal generated by primer dimers. Data were collected and recorded by the BIORAD CFX Manager software. The relative quantity of the ICP0 transcripts at the indicated time points was normalized to the relative quantity of the reference gene actin at the same time points and then the log10 copy number of the normalized RNA transcripts were calculated and presented on a bar chart. A melting temperature curve analysis was obtained by measuring (after the amplification cycles) the fluorescence during a period of warming from 60° C. to 95° C. […]

The record followed here is patent US11596623B2, “Methods for treating virus infection or proliferation” (HOWARD UNIVERSITY, priority 2018, dated 2023).

“Also recorded” adds a separate entry of the source.

With `Nn1c(S)nnc1-c1cc(Cl)cc(Cl)c1` [SD29-14], the “EV-D68 proliferation / major structural protein VP1” value is reported as “inhibits EV-D68 proliferation in a dose dependent way; also recorded: effectively inhibited the viral major structural protein VP1” in the assay with EV-D68 and “inhibits proliferation of a representative virus (EV-D68), in a dose dependent way” with EV-D68 (listed as SD 29-14). In the assay with EV-D68 (VP1 western), the “efficacy in inhibiting EV-D68 compared with SD29 and SD29-12” value was “better efficacy”.

As for `Nn1c(S)nnc1-c1ccc(F)cc1` [SD-29], in the assay on HSV-1 ICP0, the “ICP0 mRNA level” value is given as “essentially showed the same level of ICP0 mRNA”.
